Laboratory results as given in US7714158B2, “Ibandronate polymorph” (Hoffmann-La Roche Inc., priority 2005, dated 2010).

Key:
[1] = Solubility measurement of crystalline Ibandronate polymorphs by suspension and complexometric titration; format: physicochemical; details: Polymorph A; water; 25° C., 24 h stirred + 24 h unstirred; listed as Ibandronate polymorph A, monosodium salt monohydrate
Experimental: The solubility of the individual crystalline Ibandronate polymorphs A and B was measured for various solutions. Approximately 10 g of the corresponding polymorph A or B were suspended in three different buffer solutions at pH 2, pH 4 (Titrisol-buffer, citrate/HCl), at pH 7 (methenamine buffer, HCl) or in water. The suspension was stirred for 24 hours at 25° C. and was kept additionally 24 hours without stirring at the same temperature. Solubility was calculated by titration according to the following method.
The residue was filtered, 2 ml of the filtrate taken, 5 ml of Titriplex III solution were added and diluted with water to 100 ml. 2 ml of this solution were added to approximately 0.1 ml of xylenol orange indicator and the pH was adjusted to 6.5 by adding small portions of methenamine buffer solution or 0.1 M hydrochloric acid. The solution is titrated immediately with Th-DCTA-xylenol orange complex until the color changes from yellow to reddish-violet. The endpoint is determined photometrically.

[2] = Relative thermodynamic stability of Ibandronate polymorphs; details: compared with polymorph B

Q: What does the source list for `CCCCCN(C)CCC(O)(P(=O)([O-])O)P(=O)(O)O.O.[Na+]` [Polymorph A, 3-(N-methyl-N-pentyl) amino-1-hydroxypropane-1,1-diphosphonic acid monosodium salt monohydrate]?
A: solubility [1]: about 278 g/l; thermodynamic stability [2]: thermodynamically more stable
